Reference: patent US5914236A, “PCT-65 serotonin receptor” (United States of America, priority 1995, dated 1999)

Legend:
PCT-65 receptor [1] = molecular target: T1, PCT-65 receptor (Rattus norvegicus, UniProt P32305); experiment: Competition binding to PCT-65 receptor (radioligand not specified); details: for affinity for PCT-65 (in words): expressed in mammalian cells (COS-7)
T1 construct: expressed in transfected cells; host or cells: COS-7 cells (transient, calcium phosphate, pSRα-65)

PCT-65 receptor [2] = molecular target: T1, PCT-65 receptor; experiment: [3H]-5-HT competition binding to PCT-65 receptor in membranes of transfected COS-7 cells; details: competing with [3H]-5-HT (1 nM), COS-7 membranes, 37 °C; geometric mean ± SEM (n=3)
Experimental: (§1) This plasmid construct (pSRα-65) was introduced into COS-7 cells by calcium phosphate-mediated transfection.
Specifically, transfected cells were scraped into PBS with 5 mM EDTA, spun, polytroned, spun, suspended in 100 mM Tris, 20 mM MgSO4, 1 mM EDTA, pH7.7. 0.5 ml of this solution containing 10-25 μg protein was added to 0.5 ml of a 2 mM ascorbic acid solution containing the ligand and drugs and incubated for 30 min at 37° C. Filtration was performed on GF/C paper (0.1% PEI solution pre-treatment) with a 10 ml rinse.

PCT-65 receptor [3] = molecular target: T1, PCT-65 receptor; experiment: [3H]-LSD competition binding to PCT-65 receptor in membranes of transfected COS-7 cells; details: for Ki: competing with [3H]-LSD (1.5-2.2 nM), COS-7 membranes, pH 7.4, 37 °C, 60 min, geometric mean ± SEM (n=3)
From the text: as §1

5HT1A receptors = details: background; cited from earlier work
[4] = radioligand not given, read-out: Ki (compounds not in Table 1)

T1 sequence (P32305 45-448): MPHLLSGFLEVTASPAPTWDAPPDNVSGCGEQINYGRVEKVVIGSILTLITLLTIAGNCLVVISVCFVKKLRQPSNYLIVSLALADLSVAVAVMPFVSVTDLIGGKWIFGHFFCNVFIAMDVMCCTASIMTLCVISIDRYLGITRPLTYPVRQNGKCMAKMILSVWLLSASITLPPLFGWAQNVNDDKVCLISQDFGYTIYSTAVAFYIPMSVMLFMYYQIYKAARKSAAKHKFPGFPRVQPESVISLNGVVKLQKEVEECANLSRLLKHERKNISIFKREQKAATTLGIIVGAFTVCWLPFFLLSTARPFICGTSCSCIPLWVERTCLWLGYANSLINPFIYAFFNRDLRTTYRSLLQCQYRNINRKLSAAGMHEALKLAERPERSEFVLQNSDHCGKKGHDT

Row | SMILES | Ki (PCT-65 receptor [2]) | Ki (PCT-65 receptor [3]) | further results
1 | NCCc1ccc(O)c(O)c1 [Dopamine] | – | – | Ki (PCT-65 receptor [1]; [4]): > 1300 nM
2 | CC(C)NCC(O)COc1cccc2[nH]ccc12 (stereo not drawn) [Pindolol] | – | – | Ki (PCT-65 receptor [1]): > 1300 nM
3 | c1ccc2c(c1)OCC(C1=NCCN1)O2 (stereo not drawn) [Idazoxan] | – | – | Ki (PCT-65 receptor [1]; [4]): > 1300 nM
4 | CNS(=O)(=O)Cc1ccc2[nH]cc(CCN(C)C)c2c1 [Sumatriptan] | 251 ± 36.1 nM | – | –
5 | COc1ccc2[nH]cc(CCNC(C)=O)c2c1 [Melotonin] | – | – | Ki (PCT-65 receptor [1]): > 1300 nM
6 | NCCc1c[nH]c2ccc(O)cc12 [5-Hydroxytryptamine, 5-hydroxytryptamine] | – | – | affinity for PCT-65 (in words) (PCT-65 receptor [1]): high affinity
7 | CCCN(CCC)C1CCc2cccc(O)c2C1 (stereo not drawn) [8-OH-DPAT] | 35 ± 5.62 nM | 35.4 ± 5.24 nM | affinity for PCT-65 (in words) (PCT-65 receptor [1]): relatively low affinity
8 | NCCc1c[nH]c2ccccc12 [Tryptamine] | 16.4 ± 1.01 nM | 32.9 ± 0.76 nM | –
9 | CCCN1C[C@H](CSC)C[C@@H]2c3cccc4[nH]cc(c34)C[C@H]21 [Pergolide] | 1.01 ± 0.03 nM | 4.78 ± 0.18 nM | affinity for PCT-65 (in words) (PCT-65 receptor [1]): relatively high affinity
10 | CN1[C@@H]2CC[C@H]1C[C@@H](OC(=O)c1cc(Cl)cc(Cl)c1)C2 [MDL7222] | – | – | Ki (PCT-65 receptor [1]; [4]): > 1300 nM
11 | COc1cc(N)c(Cl)cc1C(=O)NC1CCN2CCCC1C2 (stereo not drawn) [BRL24294] | – | – | Ki (PCT-65 receptor [1]; [4]): > 1300 nM
12 | COc1cc(N)c(Cl)cc1C(=O)NC1CN2CCC1CC2 (stereo not drawn) [Zacopride] | – | – | Ki (PCT-65 receptor [1]; [4]): > 1300 nM
13 | CCN(CC)C(=O)[C@@H]1C=C2c3cccc4[nH]cc(c34)C[C@H]2N(C)C1 [LSD] | – | – | affinity for PCT-65 (in words) (PCT-65 receptor [1]): relatively high affinity
14 | CN1C2CCC1CC(NC(=O)c1nn(C)c3ccccc13)C2 (stereo not drawn) [LY-278584] | – | – | Ki (PCT-65 receptor [1]): > 1300 nM
15 | CC(C)n1c(=O)n(C(=O)NC2CC3CCC(C2)N3C)c2ccccc21 (stereo not drawn) [BIMU8] | – | – | Ki (PCT-65 receptor [1]): > 1300 nM
16 | CCNC(C)Cc1cccc(C(F)(F)F)c1 (stereo not drawn) [Fenflurmine] | – | – | Ki (PCT-65 receptor [1]): > 1300 nM
17 | O=C(c1ccc(F)cc1)C1CCN(CCn2c(=O)[nH]c3ccccc3c2=O)CC1 [Ketanserin] | 265 ± 32.1 nM | 207 ± 19.6 nM | –
18 | NCCc1c[nH]cn1 [Histamine] | – | – | Ki (PCT-65 receptor [1]; [4]): > 1300 nM
19 | CN(C)CCCC1(c2ccc(F)cc2)OCc2cc(C#N)ccc21 (stereo not drawn) [Citalopram] | – | – | Ki (PCT-65 receptor [1]): > 1300 nM
20 | CN(C)CCC=C1c2ccccc2CCc2ccccc21 [Amitriptyline] | 92.8 ± 15.8 nM | 124 ± 13.4 nM | Ki (PCT-65 receptor [1]): < 100 nM; affinity for PCT-65 (in words) (PCT-65 receptor [1]): high affinity
21 | CN1CCN(C2=Nc3ccccc3Oc3ccc(Cl)cc32)CC1 [Loxapine] | 133 ± 36.1 nM | 172 ± 7.8 nM | affinity for PCT-65 (in words) (PCT-65 receptor [1]): low affinity; affinity for PCT-65 (in words) (PCT-65 receptor [1]; listed as loxipine): high affinity

Row | SMILES | Ki (PCT-65 receptor [2]) | Ki (PCT-65 receptor [3]) | further results
22 | NCC(O)c1ccc(O)cc1 (stereo not drawn) [Octopamine] | – | – | Ki (PCT-65 receptor [1]): > 1300 nM
23 | Clc1cccc(N2CCNCC2)c1 [mCPP] | 256 ± 9.9 nM | 352 ± 54.9 nM | –
24 | CC1(C)CC(=O)N(CCCCN2CCN(c3ncccn3)CC2)C(=O)C1 [gepirone] | – | – | affinity for 5HT1A receptors in the brain (in words) (5HT1A receptors): high affinities
25 | FC(F)(F)c1cccc(N2CCNCC2)c1 [TFMPP] | 236 ± 5.5 nM | 533 ± 33 nM | –
26 | NCCc1c[nH]c2ccc(C(N)=O)cc12 [5-Carboxamidotryptamine] | 0.16 ± 0.05 nM | 0.33 ± 0.01 nM | –
27 | Cc1nc2sccn2c(=O)c1CCN1CCC(=C(c2ccc(F)cc2)c2ccc(F)cc2)CC1 [Ritanserin] | 15 ± 3.4 nM | 21.7 ± 2.1 nM | –
28 | c1ccc2nc(N3CCNCC3)ccc2c1 [Quipazine] | – | – | Ki (PCT-65 receptor [1]; [4]): > 1300 nM
29 | CN1C2CCCC1CC(NC(=O)c1nn(C)c3ccccc13)C2 (stereo not drawn) [BRL43694] | – | – | Ki (PCT-65 receptor [1]; [4]): > 1300 nM
30 | CC(C)C[C@H]1C(=O)N2CCC[C@H]2[C@]2(O)O[C@](NC(=O)[C@@H]3C=C4c5cccc6[nH]c(Br)c(c56)C[C@H]4N(C)C3)(C(C)C)C(=O)N12 [Bromocriptine] | 48.8 ± 7.9 nM | 10.7 ± 0.47 nM | –
31 | CN1C[C@H](CNC(=O)OCc2ccccc2)C[C@@H]2c3cccc4c3c(cn4C)C[C@H]21 [Metergoline] | 6.21 ± 1 nM | 2.04 ± 0.15 nM | potency in competition with [3H]-LSD compared with [3H]-5-HT (in words) (PCT-65 receptor [3]; relative to competition with [3H]-5-HT): somewhat greater potency
32 | CN1C2CCC1CC(NC(=O)n1c(=O)[nH]c3ccccc31)C2 (stereo not drawn) [DAU6215] | – | – | Ki (PCT-65 receptor [1]; [4]): > 1300 nM
33 | COc1ccc2[nH]cc(CCN(C)C)c2c1 [5-Methoxy-N,N-dimethytryptamine] | 8.26 ± 0.73 nM | 20.9 ± 0.86 nM | –
34 | c1ccc2c(N3CCNCC3)cccc2c1 [1(1-Napthyl)piperazine] | 18.4 ± 0.77 nM | 33.8 ± 1.68 nM | –
35 | CCn1c(=O)n(C(=O)NC2CC3CCC(C2)N3C)c2ccccc21 (stereo not drawn) [BIMU1] | – | – | Ki (PCT-65 receptor [1]; [4]): > 1300 nM
36 | COc1ccccc1N1CCNCC1 [2-MPP] | 125 ± 8.4 nM | 244 ± 16.5 nM | –
37 | CN1C[C@@H](NS(=O)(=O)N(C)C)C[C@@H]2c3cccc4c3c(cn4C)C[C@H]21 [Mesulergine] | 21.1 ± 2.19 nM | 7.13 ± 0.39 nM | affinity for PCT-65 (in words) (PCT-65 receptor [1]): relatively high affinity
38 | O=C1c2ccccc2S(=O)(=O)N1CCCCN1CCN(c2ncccn2)CC1 [ipsapirone] | – | – | affinity for 5HT1A receptors in the brain (in words) (5HT1A receptors): high affinities
39 | COc1ccccc1N1CCN(CCCCN2C(=O)c3ccccc3C2=O)CC1 [NAN-190] | – | – | Ki (PCT-65 receptor [1]; [4]): > 1300 nM
40 | CC[C@@H](CO)NC(=O)[C@@H]1C=C2c3cccc4c3c(cn4C)C[C@H]2N(C)C1 [Methysergide] | 13.4 ± 0.8 nM | 12.6 ± 0.84 nM | –
41 | CNCCCN1c2ccccc2CCc2ccccc21 [Desipramine] | – | – | Ki (PCT-65 receptor [1]): > 1300 nM
